Source: the supplement of paper PMC7840683
± gives the standard deviation of the averaged measurements.

Tested on: HepaRG
Assay: LDH release cytotoxicity, % of total lysis control; higher = more cytotoxic
Conditions: 48 h
How it was run: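 Percent cytotoxicity was scaled between on-plate vehicle and total lysis controls, then averaged over duplicate wells. The cells were single-lot HepaRG on collagen I-coated 96-well plates, exposed for 48 h to eight-point half-log test chemical series topping at 100 µM in serum-free induction medium with 0.5% DMSO. Total lysis wells got 0.1% Triton X, and LDH in 50 µL spent medium was read as resorufin fluorescence (CytoTox-ONE, Tecan Safire).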

Row | Structure (SMILES) | LDH release cytotoxicity (0.03162 µM) | LDH release cytotoxicity (0.1 µM) | LDH release cytotoxicity (0.3162278 µM) | LDH release cytotoxicity (1 µM) | LDH release cytotoxicity (3.16228 µM) | LDH release cytotoxicity (10 µM) | LDH release cytotoxicity (31.6228 µM) | LDH release cytotoxicity (100 µM) | also measured
1 | O=[N+]([O-])c1c(Cl)c(Cl)c(Cl)c(Cl)c1Cl [Pentachloronitrobenzene] | -1.26 ± 0.72% | -1.49 ± 0.11% | -1.32 ± 0.71% | -1.55 ± 1.1% | -0.822 ± 1.5% | 0.118 ± 0.74% | 0.34 ± 0.41% | 2.25 ± 1.1% | 
2 | Oc1c(Cl)c(Cl)c(Cl)c(Cl)c1Cl [Pentachlorophenol] |  |  |  |  |  |  |  |  | LDH release cytotoxicity (0.0161276 µM): -0.227 ± 0.28%; LDH release cytotoxicity (0.051 µM): -1.03 ± 0.34%; LDH release cytotoxicity (0.161276 µM): -1.01 ± 0.69%; LDH release cytotoxicity (0.51 µM): -0.425 ± 0.32%; LDH release cytotoxicity (1.6127616 µM): 1.21 ± 0.41%; LDH release cytotoxicity (5.1 µM): 9 ± 4.7%; LDH release cytotoxicity (16.127616 µM): 41.1 ± 1.3%; LDH release cytotoxicity (51 µM): 40.65 ± 0.23%
3 | Clc1nc(Cl)c(Cl)c(Cl)c1Cl [Pentachloropyridine] | -0.545 ± 0.73% | -1.54 ± 0.25% | -1.28 ± 1.4% | -1.08 ± 1.1% | -0.873 ± 0.5% | -1.56 ± 0.52% | -0.833 ± 0.26% | 0.716 ± 0.84% | 
4 | CCCCCCCCCCCCCCC [Pentadecane] | -1.39 ± 0.28% | -0.5079 ± 0.0034% | -0.0639 ± 1.3% | -1.27 ± 1.5% | -0.987 ± 0.93% | -0.163 ± 0.94% | 0.517 ± 0.29% | 1.96 ± 1.3% | 
5 | OCC(CO)(CBr)CBr [Pentaerythritol dibromide] | -0.95 ± 0.41% | -1.43 ± 0.67% | -2.05 ± 0.21% | -2.19 ± 0.11% | -1.68 ± 0.31% | -1.56 ± 0.1% | -0.856 ± 0.31% | 0.8 ± 1.4% | 
6 | OCC(CO)(CO)CO [Pentaerythritol] | -0.674 ± 0.59% | -1.13 ± 0.089% | -1.3 ± 0.092% | -1.89 ± 1% | -0.206 ± 1.4% | -1.15 ± 0.98% | -0.431 ± 0.65% | 0.764 ± 0.28% | 
7 | N=C(N)c1ccc(OCCCCCOc2ccc(C(=N)N)cc2)cc1 [Pentamidine isethionate] |  |  |  |  |  |  |  |  | LDH release cytotoxicity (0.0276699 µM): -1.83 ± 0.92%; LDH release cytotoxicity (0.0875 µM): -2.81 ± 0.69%; LDH release cytotoxicity (0.276699 µM): -2.72 ± 0.49%; LDH release cytotoxicity (0.875 µM): -3.54 ± 0.15%; LDH release cytotoxicity (2.76699 µM): -2.52 ± 0.068%; LDH release cytotoxicity (8.75 µM): 19 ± 1.4%; LDH release cytotoxicity (27.6699 µM): 68.9 ± 1%; LDH release cytotoxicity (87.5 µM): 73.7 ± 2%
8 | CCCCC=O [Pentanal] |  | -1.98 ± 0.44% |  | -1.67 ± 0.41% | -1.94 ± 0.15% | -1.12 ± 0.47% | -1.6 ± 0.26% | 0.803 ± 0.68% | LDH release cytotoxicity (0.031623 µM): 0.98 ± 0.79%; LDH release cytotoxicity (0.316228 µM): -0.995 ± 0.23%
9 | O=C(OCCCCCOC(=O)c1ccccc1)c1ccccc1 [Pentane-1,5-diyl dibenzoate] | -0.742 ± 0.19% | -0.929 ± 0.18% | -1.73 ± 0.77% | -1.19 ± 0.099% | -0.893 ± 0.47% | -0.935 ± 0.24% | -0.87 ± 0.083% | -0.0778 ± 0.93% | 
10 | CCCCCOC(C)=O [Pentyl acetate] | -10.9 ± 0.81% | -10.5 ± 0.81% | -10.2 ± 1.1% | -11 ± 1.1% | -10.3 ± 0.5% | -10.9 ± 1.1% | -10.3 ± 0.19% | -10.02 ± 0.093% | 
11 | O=C(O)C(F)(F)C(F)(F)C(F)(F)C(F)(F)C(F)(F)C(F)(F)C(F)(F)C(F)(F)C(F)(F)F [Perfluorodecanoic acid] |  | -0.365 ± 0.079% |  | -0.768 ± 0.65% | -7.62 ± 0.32% | 7.64 ± 0.07% | 8.49 ± 0.18% | 44.4 ± 6.8% | LDH release cytotoxicity (0.031623 µM): 2.61 ± 0.091%; LDH release cytotoxicity (0.316228 µM): -0.683 ± 1.6%
12 | O=C(O)C(F)(F)C(F)(F)C(F)(F)C(F)(F)C(F)(F)C(F)(F)F [Perfluoroheptanoic acid] | -2.26 ± 1% | -2.63 ± 0.69% | -3.62 ± 0.96% | -3.63 ± 0.086% | -2.82 ± 0.55% | -2.95 ± 0.085% | -2.44 ± 0.19% | -2.23 ± 0.48% | 
13 | O=C(O)C(F)(F)C(F)(F)C(F)(F)C(F)(F)C(F)(F)F [Perfluorohexanoic acid] | -0.915 ± 0.22% | -0.436 ± 0.56% | -1.48 ± 0.11% | -1.3 ± 0.12% | -1.58 ± 0.4% | -0.342 ± 0.24% | -0.769 ± 0.29% | 0.349 ± 0.23% | 
14 | O=C(O)C(F)(F)C(F)(F)C(F)(F)C(F)(F)C(F)(F)C(F)(F)C(F)(F)C(F)(F)F [Perfluorononanoic acid] | -0.689 ± 0.78% | -1.58 ± 0.88% | -1.12 ± 0.43% | -2.4 ± 0.24% | -1.4 ± 0.082% | -1.71 ± 0.11% | -1.31 ± 0.22% | 27.5 ± 4.5% | 
15 | NS(=O)(=O)C(F)(F)C(F)(F)C(F)(F)C(F)(F)C(F)(F)C(F)(F)C(F)(F)C(F)(F)F [Perfluorooctanesulfonamide] | -1.99 ± 0.3% | -2.06 ± 0.39% | -2.69 ± 0.94% | -1.57 ± 1.4% | -1.2 ± 0.054% | -4.2 ± 0.27% | 41.1 ± 1.1% | 86.8 ± 13% | 
16 | O=S(=O)(O)C(F)(F)C(F)(F)C(F)(F)C(F)(F)C(F)(F)C(F)(F)C(F)(F)C(F)(F)F [Perfluorooctanesulfonic acid] | -1.36 ± 0.32% | -1.86 ± 0.5% | -1.14 ± 0.19% | -1.91 ± 0.49% | -1.26 ± 0.23% | -2 ± 0.026% | -0.893 ± 0.12% | 19.6 ± 3.8% | 
17 | O=C(O)C(F)(F)C(F)(F)C(F)(F)C(F)(F)C(F)(F)C(F)(F)C(F)(F)F [Perfluorooctanoic acid] | -0.867 ± 0.091% | -1.32 ± 0.54% | -1.53 ± 0.41% | -1.76 ± 0.67% | -0.724 ± 0.56% | -1.14 ± 0.49% | -1.29 ± 0.37% | 1.94 ± 1% | 
18 | O=C(O)C(F)(F)C(F)(F)C(F)(F)C(F)(F)C(F)(F)C(F)(F)C(F)(F)C(F)(F)C(F)(F)C(F)(F)F [Perfluoroundecanoic acid] |  |  |  |  |  |  |  |  | LDH release cytotoxicity (0.0302 µM): -0.896 ± 0.4%; LDH release cytotoxicity (0.0955 µM): -2.14 ± 0.16%; LDH release cytotoxicity (0.301998 µM): -0.462 ± 0.4%; LDH release cytotoxicity (0.955 µM): -1.31 ± 0.4%; LDH release cytotoxicity (3.01998 µM): -1.93 ± 0.38%; LDH release cytotoxicity (9.55 µM): -1.78 ± 2%; LDH release cytotoxicity (30.1998 µM): -0.387 ± 0.52%; LDH release cytotoxicity (95.5 µM): 1.42 ± 0.46%
